Where two headings read alike, the source gives them in different places. Marks after values point to notes of the source that are not given here.
Experiments:
[1] = ligand 30 µmol kg^-1 ip at 1 h after iv ^238Pu(IV) citrate, kill at 24 h, reported previously, cited from earlier work; for percent of injected ^238Pu at 24 h, excreta: feces and GI contents / percent of injected ^238Pu at 24 h, excreta: urine 0-24 h / percent of injected ^238Pu at 24 h, tissues: kidneys: pooled samples
[2] = Promoting excretion of 238Pu(IV) in mice by injected ligands; format: in vivo; settings: for percent of injected ^238Pu ± SD at 24 h, tissues: liver / percent of injected ^238Pu ± SD at 24 h, tissues: skeleton / percent of injected ^238Pu ± SD at 24 h, tissues: soft tissue / percent of injected ^238Pu ± SD at 24 h, whole body / percent of injected ^238Pu at 24 h, excreta: feces and GI contents / percent of injected ^238Pu at 24 h, excreta: urine 0-24 h / percent of injected ^238Pu at 24 h, tissues: kidneys: ligand 30 µmol kg^-1 ip at 1 h after iv ^238Pu(IV) citrate, kill at 24 h; for percent of injected ^238Pu at 24 h, excreta: feces and GI contents / percent of injected ^238Pu at 24 h, excreta: urine 0-24 h / percent of injected ^238Pu at 24 h, tissues: kidneys: pooled samples
Text: Animal studies were completed using methods detailed in Radiation Protection Dosimetry, in press, P. W. Durbin et al., "In Vivo Chelation of Am(III), Pu(IV), Np(V) and U(VI) in Mice by TREN-(Me-3,2-HOPO)"; Radiation Protection Dosimetry, 17, No. 1, 1989, p. 351, P. W. Durbin et al., "Removal of ^238Pu(IV) from Mice by Polycatechoylate, -Hydroxamate or -Hydroxypyridinonate Ligands"; Radiation Research, 99, 1984, p. 85, P. W. Durbin et al., "Specific Sequestering Agents for the Actinides ..."; Radiation Research, 99, 1984, p. 106, P. W. Durbin et al., "Removal of Pu and Am from Beagles and Mice ..."; Radiation Research, 81, 1980, p. 170, R. D. Lloyd et al., and P. W. Durbin et al., "Specific Sequestering Agents for the Actinides ...". The foregoing articles are hereby incorporated by reference.
Radionuclides used in the animal studies came from a variety of sources. However, they can be purchased commercially. The ^238Pu(IV) citrate and ^241Am(III) citrate solutions were prepared for animal injection by 8- to 10-fold dilution with 0.14M NaCl (pH 4) of concentrated stock solutions (0.08M sodium citrate buffer) that had been held in frozen storage at Lawrence Berkeley Laboratory (hereinafter LBL) for several years. [The ^238Pu(IV) was originally obtained from D. R. Atherton at the University of Utah Radiobiology Laboratory, Salt Lake City. The ^241Am(III) solution had been obtained many years earlier from the LBL Actinide Chemistry group.]
The novel chelating agents of the present invention and comparative compounds were tested for their effectiveness in promoting excretion ^238Pu(IV) in nice by injected ligands as follows. Mice, in groups of five, each received an intravenous injection of 1850 Bq ^238Pu(IV) in 0.2 mL of citrate buffer. One hour later, 30 µmol/kg of ligand was injected intraperitoneally in 0.5 mL of saline. The mice were killed 24 hours after the Pu injection, frozen, and dissected after partial thawing. The ^238Pu in skeleton, soft tissues, and separated excreta was determined by counting the ^234U L x-rays. Results of removal of ^238Pu(IV) from mice by injected ligands are summarized in Table 3, which also includes data for CaNa3-DTPA and other reference ligands and the Pu-injected controls. […] While the case of multidente 1,2-HOPO and catechoylamide chelating agents, octadentates are always better chelating agents than the corresponding hexadentates and tetradentates.

[3] = In vivo acute toxicity test of injected ligands in mice
Experimental: The test of acute toxicity of novel and comparative ligands was carried out as follows. Groups of five mice were each given a single i.p. injection of […] of ligand and a day for 10 days or given two i.p. injections of […] in 8 hours. The ligand was dissolved in 0.5 to 1.0 ml of saline at pH 7 to 8. After a period of observation, the mice were killed; selected tissues were removed and fixed for histopathological examination; and unusual findings at autopsy were recorded. […]

[4] = protocol IA, 100 µmol kg^-1 x 2 daily, study length 6 d, data for two moribund mice autopsied on d 3
[5] = protocol I, 100 µmol kg^-1 x 10 daily i.p., study length 11 d
[6] = protocol I, 100 µmol kg^-1 x 10 daily i.p., study length 21 d
[7] = protocol II, 500 µmol kg^-1 x 2 in 8 h, study length 11 d
[8] = protocol II, 500 µmol kg^-1 x 2 in 8 h, study length 8 d

SMILES	percent of injected ^238Pu at 24 h, excreta: feces and GI contents [1]	percent of injected ^238Pu at 24 h, excreta: urine 0-24 h [1]	percent of injected ^238Pu at 24 h, tissues: kidneys [1]	percent of injected ^238Pu ± SD at 24 h, tissues: liver [1]	percent of injected ^238Pu ± SD at 24 h, tissues: skeleton [1]	percent of injected ^238Pu ± SD at 24 h, tissues: soft tissue [1]	percent of injected ^238Pu ± SD at 24 h, whole body [1]	percent of injected ^238Pu ± SD at 24 h, tissues: liver [2]	percent of injected ^238Pu ± SD at 24 h, tissues: skeleton [2]	percent of injected ^238Pu ± SD at 24 h, tissues: soft tissue [2]	percent of injected ^238Pu ± SD at 24 h, whole body [2]	percent of injected ^238Pu at 24 h, excreta: feces and GI contents [2]	percent of injected ^238Pu at 24 h, excreta: urine 0-24 h [2]	percent of injected ^238Pu at 24 h, tissues: kidneys [2]	further results
CC(=O)N(O)CCCCCNC(=O)CCC(=O)N(O)CCCCCNC(=O)CCC(=O)N(O)CCCCCNC(=O)c1ccn(C)c(=O)c1O [DFO-Me-3,2-HOPO]	26.4% of injected ^238Pu	21% of injected ^238Pu	3.0% of injected ^238Pu	13 ± 3.5% of injected ^238Pu	17 ± 2.4% of injected ^238Pu	19 ± 3.0% of injected ^238Pu	53 ± 3.4% of injected ^238Pu								
O=C(NCCCCN(CCCNC(=O)c1cccc(=O)n1O)C(=O)c1cccc(=O)n1O)c1cccc(=O)n1O [3,4-LI(1,2-HOPO)]	58% of injected ^238Pu	7.9% of injected ^238Pu	0.6% of injected ^238Pu	18 ± 4.8% of injected ^238Pu	9.9 ± 3.6% of injected ^238Pu	5.8 ± 1.3% of injected ^238Pu	34 ± 9.2% of injected ^238Pu								
O=C(NCc1cc(CNC(=O)c2cccc(=O)n2O)cc(CNC(=O)c2cccc(=O)n2O)c1)c1cccc(=O)n1O [ME-(1,2-HOPO)]	43% of injected ^238Pu	9.6% of injected ^238Pu	1.8% of injected ^238Pu	18 ± 6.3^d percent of injected ^238Pu	17 ± 2.5% of injected ^238Pu	10 ± 1.8% of injected ^238Pu	47 ± 9.4% of injected ^238Pu								
CC(=O)N(O)CCCCCNC(=O)CCC(=O)N(O)CCCCCNC(=O)CCC(=O)N(O)CCCCCNC(=O)c1cccc(=O)n1O [DFO-(1,2-HOPO)]	46.7% of injected ^238Pu	9.5% of injected ^238Pu		5.1 ± 2.2^d percent of injected ^238Pu	6.0 ± 0.5^d percent of injected ^238Pu	2.3 ± 0.5^d percent of injected ^238Pu	13 ± 2.9^d percent of injected ^238Pu								
Cn1ccc(C(=O)NCCCNC(=O)c2ccn(C)c(=O)c2O)c(O)c1=O [3-LI-Me-3,2-HOPO, 1,3-bis[(3-hydroxy-1-methyl-2-oxo-1,2-dihydropyridin-4yl)carboxamido]propane]								9.5 ± 4.9^d percent of injected ^238Pu	14 ± 1.9% of injected ^238Pu	2.6 ± 0.4% of injected ^238Pu	27 ± 5.2% of injected ^238Pu	41.6% of injected ^238Pu	32% of injected ^238Pu	0.5% of injected ^238Pu	no. of survivors ([3]; protocol IA, 100 µmol kg^-1 x 2 daily, study length 6 d): 0; percent control mean + SD: body weight [3, 4]: 89 ± 4 percent control; percent control mean + SD: kidney weight [3, 4]: 222 ± 29 percent control; percent control mean + SD: plasma urea N [3, 4]: >1800 percent control
O=C(NCCCN(CCCCN(CCCNC(=O)c1cccc(=O)n1O)C(=O)c1cccc(=O)n1O)C(=O)c1cccc(=O)n1O)c1cccc(=O)n1O [3,4,3-LI(1,2-HOPO)]	57% of injected ^238Pu	23% of injected ^238Pu	0.2% of injected ^238Pu	8.9 ± 1.7^d percent of injected ^238Pu	7.5 ± 0.7^d percent of injected ^238Pu	1.6 ± 0.6^d percent of injected ^238Pu	18 ± 1.7^d percent of injected ^238Pu								
CC(=O)N(O)CCCCCNC(=O)CCC(=O)N(O)CCCCCNC(=O)CCC(=O)N(O)CCCCCN [DFO, desferrioxamine B]	15.1% of injected ^238Pu	38% of injected ^238Pu	1.8% of injected ^238Pu	19 ± 13% of injected ^238Pu	20 ± 11% of injected ^238Pu	4.5 ± 1.4% of injected ^238Pu	45 ± 2.5% of injected ^238Pu								
Cn1ccc(C(=O)NCCOCCNC(=O)c2ccn(C)c(=O)c2O)c(O)c1=O [5-LI-O-Me-3,2-HOPO, 1,5-bis[(3-hydroxy-1-methyl-2-oxo-1,2-dihydropyridin-4-yl)carboxamino]-3-oxypentane]								2.1 ± 0.3^d percent of injected ^238Pu	11 ± 1.6% of injected ^238Pu	1.6 ± 0.2^d percent of injected ^238Pu	15 ± 2.1^d percent of injected ^238Pu	61.7% of injected ^238Pu	23.5% of injected ^238Pu	0.2% of injected ^238Pu	Pu removal (in words) ([2]; injected ligands, 30 µmol/kg intraperitoneally one hour after ^238Pu(IV)): as effective or more effective than the hexadentate and octadentate chelating agents; toxicity (in words) ([3]; even at the relatively high dosage of 2x500 µmol/kg in 8 hours): low toxicity; no. of survivors [3, 5]: 5; percent control mean + SD: body weight [3, 5]: 103 ± 5 percent control; percent control mean + SD: kidney weight [3, 5]: 100 ± 19 percent control; percent control mean + SD: plasma urea N [3, 5]: 83 ± 5 percent control; no. of survivors [3, 6]: 5; percent control mean + SD: body weight [3, 6]: 101 ± 5 percent control; percent control mean + SD: kidney weight [3, 6]: 111 ± 5 percent control; percent control mean + SD: plasma urea N [3, 6]: 86 ± 18 percent control; no. of survivors [3, 7]: 10; percent control mean + SD: body weight [3, 7]: 100 ± 2 percent control; percent control mean + SD: kidney weight [3, 7]: 108 ± 10 percent control; percent control mean + SD: plasma urea N [3, 7]: 77 ± 10 percent control
Cn1ccc(C(=O)NCCN(CCNC(=O)c2ccn(C)c(=O)c2O)CCN(CCNC(=O)c2ccn(C)c(=O)c2O)CCNC(=O)c2ccn(C)c(=O)c2O)c(O)c1=O [H(2,2)-Me-3,2-HOPO, N,N,N',N'-tetrakis[(3-hydroxyl-1-methyl-2-oxo-1,2-dihydropyridin-4-yl)carboxamido-ethyl]-ethylenediamine]								3.8 ± 1.1^d percent of injected ^238Pu	11 ± 1.7% of injected ^238Pu	2.8 ± 1.6% of injected ^238Pu	19 ± 2.9^d percent of injected ^238Pu	45.3% of injected ^238Pu	36% of injected ^238Pu	1.3% of injected ^238Pu	no. of survivors [3, 5]: 5; percent control mean + SD: body weight [3, 5]: 92 ± 6 percent control; percent control mean + SD: plasma urea N [3, 5]: 223 ± 28 percent control; no. of survivors [3, 6]: 5; percent control mean + SD: body weight [3, 6]: 87 ± 9 percent control; percent control mean + SD: plasma urea N [3, 6]: 225 ± 188 percent control; no. of survivors [3, 8]: 3; percent control mean + SD: body weight [3, 8]: 94 ± 6 percent control; percent control mean + SD: plasma urea N [3, 8]: 169 ± 10 percent control

From patent EP0840727B1, “3-HYDROXY-2(1H)-[…] AGENTS” (priority 1995, dated 1997)
